# Results as given in PubChem BioAssay (NCI).
#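 A five-concentration, 48-hour dose response in 96-well plates underlies each endpoint, interpolated linearly between surrounding concentrations. GI50: concentration for 50% inhibition of growth. TGI: total growth inhibition.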
# Experiments:
# Test in all cases: NCI tumour cell line growth inhibition, 48 h
# 786-0 renal = tested on: 786-0 renal
# A498 renal = tested on: A498 renal
# A549 NSCLC = tested on: A549 NSCLC
# ACHN renal = tested on: ACHN renal
# BT-549 breast = tested on: BT-549 breast
# CAKI-1 renal = tested on: CAKI-1 renal
# CCRF-CEM leukemia = tested on: CCRF-CEM leukemia
# COLO 205 colon = tested on: COLO 205 colon
# DU-145 prostate = tested on: DU-145 prostate
# HCC-2998 colon = tested on: HCC-2998 colon
# HCT-116 colon = tested on: HCT-116 colon
# HCT-15 colon = tested on: HCT-15 colon
# HL-60(TB) leukemia = tested on: HL-60(TB) leukemia
# HOP-62 NSCLC = tested on: HOP-62 NSCLC
# HOP-92 NSCLC = tested on: HOP-92 NSCLC
# HS 578T breast = tested on: HS 578T breast
# HT29 colon = tested on: HT29 colon
# IGROV1 ovarian = tested on: IGROV1 ovarian
# K-562 leukemia = tested on: K-562 leukemia
# KM12 colon = tested on: KM12 colon
# LOX IMVI melanoma = tested on: LOX IMVI melanoma
# M14 melanoma = tested on: M14 melanoma
# MALME-3M melanoma = tested on: MALME-3M melanoma
# MCF7 breast = tested on: MCF7 breast
# MDA-MB-231 breast = tested on: MDA-MB-231 breast
# MDA-MB-435 = tested on: MDA-MB-435
# MOLT-4 leukemia = tested on: MOLT-4 leukemia
# NCI-H226 lung = tested on: NCI-H226 lung
# NCI-H23 lung = tested on: NCI-H23 lung
# NCI-H460 lung = tested on: NCI-H460 lung
# NCI-H522 lung = tested on: NCI-H522 lung
# NCI/ADR-RES ovarian = tested on: NCI/ADR-RES ovarian
# OVCAR-3 ovarian = tested on: OVCAR-3 ovarian
# OVCAR-4 ovarian = tested on: OVCAR-4 ovarian
# OVCAR-5 ovarian = tested on: OVCAR-5 ovarian
# OVCAR-8 ovarian = tested on: OVCAR-8 ovarian
# RPMI-8226 leukemia = tested on: RPMI-8226 leukemia
# RXF 393 renal = tested on: RXF 393 renal
# SF-268 CNS = tested on: SF-268 CNS
# SF-295 CNS = tested on: SF-295 CNS
# SF-539 CNS = tested on: SF-539 CNS
# SK-MEL-28 melanoma = tested on: SK-MEL-28 melanoma
# SK-MEL-5 melanoma = tested on: SK-MEL-5 melanoma
# SK-OV-3 ovarian = tested on: SK-OV-3 ovarian
# SN12C renal = tested on: SN12C renal
# SNB-19 CNS = tested on: SNB-19 CNS
# SNB-75 CNS = tested on: SNB-75 CNS
# SR leukemia = tested on: SR leukemia
# SW-620 colon = tested on: SW-620 colon
# T-47D breast = tested on: T-47D breast
# TK-10 renal = tested on: TK-10 renal
# U251 CNS = tested on: U251 CNS
# UACC-257 melanoma = tested on: UACC-257 melanoma
# UACC-62 melanoma = tested on: UACC-62 melanoma
# UO-31 renal = tested on: UO-31 renal
smiles,measurement,setting,value
COc1cc(/C=C/C(=O)Nc2ccc3c(c2)/C(=C\c2cccn2C)C(=O)N3)cc(OC)c1OC,GI50,786-0 renal,8.69 µM
same,TGI,786-0 renal,98.9 µM
same,GI50,A498 renal,2.65 µM
same,TGI,A498 renal,17.6 µM
same,GI50,A549 NSCLC,4.94 µM
same,TGI,A549 NSCLC,> 100 µM
same,GI50,ACHN renal,6.05 µM
same,TGI,ACHN renal,53.9 µM
same,GI50,BT-549 breast,6.33 µM
same,TGI,BT-549 breast,24.9 µM
same,GI50,CAKI-1 renal,4.95 µM
same,TGI,CAKI-1 renal,> 100 µM
same,GI50,CCRF-CEM leukemia,2.47 µM
same,TGI,CCRF-CEM leukemia,33.5 µM
same,GI50,COLO 205 colon,3.51 µM
same,TGI,COLO 205 colon,14.2 µM
same,GI50,DU-145 prostate,7.9 µM
same,TGI,DU-145 prostate,> 100 µM
same,GI50,HCC-2998 colon,5.34 µM
same,TGI,HCC-2998 colon,20.9 µM
same,GI50,HCT-116 colon,4.68 µM
same,TGI,HCT-116 colon,29.2 µM
same,GI50,HCT-15 colon,3.83 µM
same,TGI,HCT-15 colon,> 100 µM
same,GI50,HL-60(TB) leukemia,2.48 µM
same,TGI,HL-60(TB) leukemia,6.45 µM
same,GI50,HOP-62 NSCLC,3.71 µM
same,TGI,HOP-62 NSCLC,32 µM
same,GI50,HOP-92 NSCLC,1.54 µM
same,TGI,HOP-92 NSCLC,8.46 µM
same,GI50,HS 578T breast,3.34 µM
same,TGI,HS 578T breast,> 100 µM
same,GI50,HT29 colon,3.45 µM
same,TGI,HT29 colon,16.7 µM
same,GI50,IGROV1 ovarian,9.12 µM
same,TGI,IGROV1 ovarian,70.9 µM
same,GI50,K-562 leukemia,3.06 µM
same,TGI,K-562 leukemia,> 100 µM
same,GI50,KM12 colon,3.2 µM
same,TGI,KM12 colon,12.9 µM
same,GI50,LOX IMVI melanoma,4.21 µM
same,TGI,LOX IMVI melanoma,20.5 µM
same,GI50,M14 melanoma,6.7 µM
same,TGI,M14 melanoma,45.7 µM
same,GI50,MALME-3M melanoma,7.34 µM
same,TGI,MALME-3M melanoma,27 µM
same,GI50,MCF7 breast,1.15 µM
same,TGI,MCF7 breast,6.7 µM
same,GI50,MDA-MB-231 breast,2.3 µM
same,TGI,MDA-MB-231 breast,17.8 µM
same,GI50,MDA-MB-435,6.41 µM
same,TGI,MDA-MB-435,31.4 µM
same,GI50,MOLT-4 leukemia,4 µM
same,TGI,MOLT-4 leukemia,82.4 µM
same,GI50,NCI-H226 lung,8.14 µM
same,TGI,NCI-H226 lung,32 µM
same,GI50,NCI-H23 lung,5.01 µM
same,TGI,NCI-H23 lung,27.2 µM
same,GI50,NCI-H460 lung,4.52 µM
same,TGI,NCI-H460 lung,76.8 µM
same,GI50,NCI-H522 lung,2.41 µM
same,TGI,NCI-H522 lung,11.7 µM
same,GI50,NCI/ADR-RES ovarian,67.7 µM
same,TGI,NCI/ADR-RES ovarian,> 100 µM
same,GI50,OVCAR-3 ovarian,5.5 µM
same,TGI,OVCAR-3 ovarian,22.3 µM
same,GI50,OVCAR-4 ovarian,4.43 µM
same,TGI,OVCAR-4 ovarian,> 100 µM
same,GI50,OVCAR-5 ovarian,16.6 µM
same,TGI,OVCAR-5 ovarian,35.2 µM
same,GI50,OVCAR-8 ovarian,3.75 µM
same,TGI,OVCAR-8 ovarian,> 100 µM
same,GI50,RPMI-8226 leukemia,1.69 µM
same,TGI,RPMI-8226 leukemia,4.04 µM
same,GI50,RXF 393 renal,4.99 µM
same,TGI,RXF 393 renal,19.7 µM
same,GI50,SF-268 CNS,8.19 µM
same,TGI,SF-268 CNS,35.9 µM
same,GI50,SF-295 CNS,5.15 µM
same,TGI,SF-295 CNS,22 µM
same,GI50,SF-539 CNS,5.15 µM
same,TGI,SF-539 CNS,19.8 µM
same,GI50,SK-MEL-28 melanoma,4.03 µM
same,TGI,SK-MEL-28 melanoma,17.7 µM
same,GI50,SK-MEL-5 melanoma,1.92 µM
same,TGI,SK-MEL-5 melanoma,6.68 µM
same,GI50,SK-OV-3 ovarian,8.35 µM
same,TGI,SK-OV-3 ovarian,58.8 µM
same,GI50,SN12C renal,3.17 µM
same,TGI,SN12C renal,59.8 µM
same,GI50,SNB-19 CNS,3.89 µM
same,TGI,SNB-19 CNS,> 100 µM
same,GI50,SNB-75 CNS,2.15 µM
same,TGI,SNB-75 CNS,18.5 µM
same,GI50,SR leukemia,1.91 µM
same,TGI,SR leukemia,48.9 µM
same,GI50,SW-620 colon,11.4 µM
same,TGI,SW-620 colon,46.5 µM
same,GI50,T-47D breast,1.59 µM
same,TGI,T-47D breast,13.9 µM
same,GI50,TK-10 renal,3.68 µM
same,TGI,TK-10 renal,18.1 µM
same,GI50,U251 CNS,3.41 µM
same,TGI,U251 CNS,20 µM
same,GI50,UACC-257 melanoma,10.1 µM
same,TGI,UACC-257 melanoma,31.2 µM
same,GI50,UACC-62 melanoma,3.45 µM
same,TGI,UACC-62 melanoma,33.7 µM
same,GI50,UO-31 renal,3.47 µM
same,TGI,UO-31 renal,33.3 µM
